Reference: US8436011B2, “Pyridinopyridinone derivatives, preparation thereof and therapeutic use thereof” (Sanofi, priority 2008, dated 2013)
Read-outs that look alike come from different tables or passages of the source.

Key:
[1] = molecular target: fusion protein FIP1L1-PDGF-Rα (EOL-1 cell line) (Homo sapiens, UniProt P16234); assay: Inhibition of PDGF alpha receptor tyrosine kinase activity: proliferation of EOL-1 cells (CellTiter-Glo, 72 h); format: cell-based
Method: Measurement of Inhibition of the Tyrosine Kinase Activity of the PDGF Alpha Receptor: The inhibitory effect of the compounds according to the invention towards the tyrosine kinase activity of the PDGF alpha receptor was evaluated on the EOL-1 cell line, which line is established from a leukaemia of constitutively active chronic eosinophilic leukaemia (CEL) type. The EOL-1 line has been described as expressing the fusion protein FIP1L1-PDGF-Rα and is sensitive to kinase inhibitors in proliferation tests (Cools J. et al., Blood 2004, 103, […]). The inhibitory activity is correlated to the inhibition of cell growth. […] After incubation for 72 hours, the viable cells are quantified by measuring the cellular ATP by means of the CellTiter-Glo® kit (Promega, Cat G7571). The cells are treated according to the instructions given by the kit manufacturer, and the luminescence is measured using a Luminoskan (Ascent, Labsystem) with the following parameters: measurement: single; integration time: 1000 ms, lag time: 5 s. It is thus seen that the compounds according to the invention have inhibitory activity on the tyrosine kinase activity of PDGF-Rα. This activity is given by the concentration that inhibits 50% of the proliferation of the EOL-1 cells.

[2] = molecular target: T1, fusion protein Tel/PDGF-Rβ (BaF3 Tel/PDGF cells) (Homo sapiens, UniProt P09619); assay: Inhibition of PDGF-Rβ tyrosine kinase activity: proliferation of BaF3 Tel/PDGF cells (CellTiter-Glo, 72 h); format: cell-based, murine; settings: 72 hours incubation, read-out: IC50 (concentration that inhibits 50% of the proliferation of the BaF3 Tel/PDGF cells)
T1 construct: the transmembrane and intracellular part of the PDGF-Rβ receptor; N-terminal part of the Tel transcription factor (ETV6); expressed in transfected cells; host or cells: murine haematopoietic cell line BaF/3; the other entry of the earlier key: ETV6 (P41212, Transcription factor ETV6)
Method: Measurement of Inhibition of the Tyrosine Kinase Activity of the PDGF Beta (PDGF-Rβ) (Baf-3 tel/PDGFIRβ) Receptor:
This test consists in evaluating the effects of the compounds on the tyrosine kinase activity of the PDGF beta receptor.
The inhibitory effect of the compounds according to the invention towards the tyrosine kinase activity of the PDGF-R receptor was evaluated on the murine haematopoietic cell line BaF/3 transfected with a plasmid coding for the fusion protein Tel/PDGF-Rβ. This fusion protein is found in chronic myelomonocytic myeloid leukaemias (CMML). It comprises the N-terminal part of the Tel transcription factor and the transmembrane and intracellular part of the PDGF-Rβ receptor. This fusion protein is present in dimerized form (presence of an oligomerization domain in the N-terminal part of Tel) and, as a result, leads to constitutive activity of the kinase domain of PDGF-Rβ. This line BaF3 Tel/PDGF has been described in the literature several times and especially, in detailed manner, in the article by M. Carroll et al., PNAS, 1996, 93, 14845-14850.
(§1) The BaF3 Tel/PDGF cells are washed with phosphate buffer and inoculated in 96-well plates, at a density of 5×10^4 cells/ml (100 ml per well), in RPMI 1640 containing 10% FCS, in the presence or absence of the test compounds. After incubation for 72 hours, the viable cells are quantified by measuring the cellular ATP by means of the CellTiter-Glo® kit (Promega, Cat G7571). The cells are treated according to the instructions given by the kit manufacturer, and the luminescence is measured using a Luminoskan (Ascent, Labsystem) with the following parameters: measurement: single; integration time: 1000 ms, lag time: 5 s.
It is thus seen that the compounds according to the invention have inhibitory activity on the tyrosine kinase activity of PDGF-Rβ. This activity is given by the concentration that inhibits 50% of the proliferation of the BaF3 Tel/PDGF cells (IC50).

[3] = molecular target: T2, FLT3 receptor (MV4-11 cell line bearing an FLT3ITD mutant) (Homo sapiens, UniProt P36888, INS600HVDFREYEYD); assay: Inhibition of FLT3 receptor tyrosine kinase activity: proliferation of MV4-11 cells (CellTiter-Glo, 72 h); format: cell-based; settings: 72 hours incubation, read-out: IC50 (concentration that inhibits 50% of the proliferation of the MV4-11 cells)
T2 construct: MV4-11 cell line, which line is established from a leukaemia of constitutively active AML type bearing an FLT3ITD mutant; endogenous in cells; host or cells: MV4-11
T2 sequence (P36888 with tags, fused parts or gaps INS600HVDFREYEYD): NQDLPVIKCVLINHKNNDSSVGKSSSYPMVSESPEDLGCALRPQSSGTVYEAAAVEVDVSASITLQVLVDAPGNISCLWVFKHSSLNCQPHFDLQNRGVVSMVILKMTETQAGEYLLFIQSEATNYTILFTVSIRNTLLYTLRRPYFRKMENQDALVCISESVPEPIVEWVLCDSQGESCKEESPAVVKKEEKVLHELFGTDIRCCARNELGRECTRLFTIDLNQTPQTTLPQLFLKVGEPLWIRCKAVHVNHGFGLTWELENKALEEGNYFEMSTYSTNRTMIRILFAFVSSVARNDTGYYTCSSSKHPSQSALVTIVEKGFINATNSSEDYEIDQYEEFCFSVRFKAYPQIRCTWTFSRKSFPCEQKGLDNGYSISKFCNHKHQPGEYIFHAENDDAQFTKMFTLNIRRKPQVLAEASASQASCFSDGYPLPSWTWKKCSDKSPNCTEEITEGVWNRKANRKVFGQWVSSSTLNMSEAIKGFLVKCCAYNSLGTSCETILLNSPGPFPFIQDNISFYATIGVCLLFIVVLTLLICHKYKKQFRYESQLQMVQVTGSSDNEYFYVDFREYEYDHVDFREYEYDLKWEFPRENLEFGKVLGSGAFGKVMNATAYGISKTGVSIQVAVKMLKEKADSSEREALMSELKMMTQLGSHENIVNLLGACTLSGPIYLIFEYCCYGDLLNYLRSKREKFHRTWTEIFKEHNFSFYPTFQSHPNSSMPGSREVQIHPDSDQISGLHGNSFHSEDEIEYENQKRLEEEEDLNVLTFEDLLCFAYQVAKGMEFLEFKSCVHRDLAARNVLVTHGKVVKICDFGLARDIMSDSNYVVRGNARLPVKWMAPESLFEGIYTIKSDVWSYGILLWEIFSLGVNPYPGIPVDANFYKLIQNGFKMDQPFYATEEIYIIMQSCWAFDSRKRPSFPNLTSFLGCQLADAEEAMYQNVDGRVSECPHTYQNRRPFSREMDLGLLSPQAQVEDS
Method: Measurement of Inhibition of the Tyrosine Kinase Activity of the FLT3 Receptor
The inhibitory effect of the compounds according to the invention towards the tyrosine kinase activity of the FLT3 receptor was evaluated on an MV4-11 cell line, which line is established from a leukaemia of constitutively active AML type bearing an FLT3ITD mutant. The inhibitory activity is correlated to the inhibition of cell growth, according to the protocols described by Spiekermann, K. et al., Blood, 2003, 101, (4) 1494-1504 and O'Farrell, A.-M. et al., Blood, 2003, 101, (9) 3597-3605.
as §1, with “MV4-11 cells” for “The BaF3 Tel/PDGF cells”, “with PBS” for “with phosphate”, “of 1×10^5” for “of 5×10^4”, “(100 μL” for “(100 ml”
The inhibitory activity with respect to the FLT3 receptor is given by the concentration that inhibits 50% of the proliferation of the MV4-11 cells.

[4] = 72 hours incubation, read-out: IC50 (concentration that inhibits 50% of the proliferation of the EOL-1 cells)
[5] = read-out: IC50 (concentration that inhibits 50% of the proliferation of the EOL-1 cells), 72 hours incubation

fusion protein FIP1L1-PDGF-Rα (EOL-1 cell line), sequence (P16234 579-1089, change not shown): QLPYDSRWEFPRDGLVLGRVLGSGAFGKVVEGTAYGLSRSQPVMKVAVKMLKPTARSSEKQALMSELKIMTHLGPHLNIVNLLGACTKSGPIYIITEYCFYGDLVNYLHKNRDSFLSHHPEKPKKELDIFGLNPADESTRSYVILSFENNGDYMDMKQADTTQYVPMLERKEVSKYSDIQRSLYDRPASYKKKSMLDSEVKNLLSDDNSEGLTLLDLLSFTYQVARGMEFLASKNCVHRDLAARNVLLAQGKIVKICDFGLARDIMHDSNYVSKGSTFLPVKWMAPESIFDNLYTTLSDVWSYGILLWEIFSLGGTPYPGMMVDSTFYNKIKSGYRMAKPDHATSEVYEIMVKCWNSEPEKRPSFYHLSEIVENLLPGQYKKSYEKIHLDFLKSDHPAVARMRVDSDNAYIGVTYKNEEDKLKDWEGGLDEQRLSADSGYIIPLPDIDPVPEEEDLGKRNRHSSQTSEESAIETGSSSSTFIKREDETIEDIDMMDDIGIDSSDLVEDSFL
fusion protein FIP1L1-PDGF-Rα (EOL-1 cell line), sequence (Q6UN15 1-339 partner): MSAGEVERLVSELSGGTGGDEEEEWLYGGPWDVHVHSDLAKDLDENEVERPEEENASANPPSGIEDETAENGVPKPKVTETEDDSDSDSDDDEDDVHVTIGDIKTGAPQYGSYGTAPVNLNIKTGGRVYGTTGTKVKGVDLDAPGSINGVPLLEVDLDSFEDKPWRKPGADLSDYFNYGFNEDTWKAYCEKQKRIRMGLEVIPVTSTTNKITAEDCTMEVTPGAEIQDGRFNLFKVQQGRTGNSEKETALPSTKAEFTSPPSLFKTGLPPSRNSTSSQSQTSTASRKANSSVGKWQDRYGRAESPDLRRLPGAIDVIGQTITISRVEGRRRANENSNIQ
T1 sequence (P09619 with tags, fused parts or gaps): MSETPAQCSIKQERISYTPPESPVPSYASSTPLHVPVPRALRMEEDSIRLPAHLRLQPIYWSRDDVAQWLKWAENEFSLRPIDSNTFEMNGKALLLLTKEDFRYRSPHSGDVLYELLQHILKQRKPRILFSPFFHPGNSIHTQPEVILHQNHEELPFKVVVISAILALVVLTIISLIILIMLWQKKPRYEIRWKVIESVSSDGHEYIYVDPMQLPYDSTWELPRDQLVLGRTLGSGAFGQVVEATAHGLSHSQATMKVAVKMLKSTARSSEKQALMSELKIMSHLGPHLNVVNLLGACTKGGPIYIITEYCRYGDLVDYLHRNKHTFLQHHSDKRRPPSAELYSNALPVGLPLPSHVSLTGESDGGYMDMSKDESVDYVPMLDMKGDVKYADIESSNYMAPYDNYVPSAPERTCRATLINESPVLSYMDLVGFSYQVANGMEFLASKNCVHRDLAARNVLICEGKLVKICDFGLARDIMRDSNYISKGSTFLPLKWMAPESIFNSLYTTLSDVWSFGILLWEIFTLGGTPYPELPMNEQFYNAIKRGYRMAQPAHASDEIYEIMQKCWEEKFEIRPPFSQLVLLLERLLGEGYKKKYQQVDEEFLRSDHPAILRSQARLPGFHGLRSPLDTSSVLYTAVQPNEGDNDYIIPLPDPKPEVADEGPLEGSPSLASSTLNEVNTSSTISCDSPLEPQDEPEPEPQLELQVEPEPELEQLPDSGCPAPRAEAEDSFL

Structure (SMILES)	IC50 [1, 4] [nM]	IC50 [2] [nM]	IC50 [1, 5] [nM]	IC50 [3] [nM]	melting point [°C]
CCn1c(N)c(C(=O)NC)c(=O)c2ccc(-c3ccc(CC(=O)Nc4cc(F)cc(F)c4)cc3)nc21 [compound 6, 2-amino-7-(4-{2-[(3,5-difluorophenyl)amino]-2-oxoethyl}phenyl)-1-ethyl-N-methyl-4-oxo-1,4-dihydro-1,8-naphthyridine-3-carboxamide]	–	11	0.57	100	> 260
CCn1c(N)c(C(=O)NC)c(=O)c2ccc(-c3ccc(CC(=O)Nc4ccccc4Cl)cc3)nc21 [compound 5, 2-amino-7-(4-{2-[(2-chlorophenyl)amino]-2-oxoethyl}phenyl)-1-ethyl-N-methyl-4-oxo-1,4-dihydro-1,8-naphthyridine-3-carboxamide]	–	–	1.6	190	> 260
CCn1c(N)c(C(=O)NC)c(=O)c2ccc(-c3ccc(CC(=O)Nc4nccs4)cc3)nc21 [compound 35, 2-amino-1-ethyl-N-methyl-4-oxo-7-{4-[2-oxo-2-(1,3-thiazol-2-ylamino)-ethyl]phenyl}-1,4-dihydro-1,8-naphthyridine-3-carboxamide]	0.8	3.7	–	83	303
CCN1CCCC1CNC(=O)Cc1ccc(-c2ccc3c(=O)c(C(=O)NC)c(N)n(C4CCCC4)c3n2)cc1 (stereo not drawn) [compound 50, 2-amino-1-cyclopentyl-7-[4-(2-{[(1-ethylpyrrolidin-2-yl)methyl]amino}-2-oxoethyl)phenyl]-N-methyl-4-oxo-1,4-dihydro-1,8-naphthyridine-3-carboxamide]	–	–	3.2	–	222
CCn1c(N)c(C(=O)NC)c(=O)c2ccc(-c3ccc(CC(=O)Nc4ccccn4)cn3)nc21 [compound 19, 2-amino-1-ethyl-N-methyl-4-oxo-7-{5-[2-oxo-2-(pyrid-2-ylamino)-ethyl]pyrid-2-yl}-1,4-dihydro-1,8-naphthyridine-3-carboxamide]	–	27	0.4	100	–

Second part, led by results:

IC50 [1, 4] [nM]	IC50 [2] [nM]	Structure (SMILES)	IC50 [1, 5] [nM]	IC50 [3] [nM]	melting point [°C]
29.7	–	CCN1CCCC1CNC(=O)Cc1csc(-c2ccc3c(=O)c(C(=O)NC)c(N)n(CC)c3n2)n1 (stereo not drawn) [compound 43, 2-amino-1-ethyl-7-[4-(2-{[(1-ethylpyrrolidin-2-yl)methyl]amino}-2-oxoethyl)-1,3-thiazol-2-yl]-N-methyl-4-oxo-1,4-dihydro-1,8-naphthyridine-3-carboxamide]	–	–	–
92.7	–	CCN1CCCC1CNC(=O)CCCCc1ccc(-c2ccc3c(=O)c(C(=O)NC)c(N)n(CC)c3n2)cc1 (stereo not drawn) [compound 51, 2-amino-1-ethyl-7-[4-(5-{[(1-ethylpyrrolidin-2-yl)methyl]amino}-5-oxopentyl)phenyl]-N-methyl-4-oxo-1,4-dihydro-1,8-naphthyridine-3-carboxamide]	–	–	180
–	11	CCN1CCC[C@@H]1CNC(=O)Cc1ccc(-c2ccc3c(=O)c(C(=O)NC)c(N)n(CC)c3n2)cc1 [compound 14, 2-amino-1-ethyl-7-{4-[2-({[(2R)-1-ethylpyrrolidin-2-yl]methyl}amino)-2-oxoethyl]phenyl}-N-methyl-4-oxo-1,4-dihydro-1,8-naphthyridine-3-carboxamide]	–	340	270
–	0.07	CCN1CCOCC1CNC(=O)Cc1ccc(-c2ccc3c(=O)c(C(=O)NC)c(N)n(CC)c3n2)cc1 (stereo not drawn) [compound 22, 2-amino-1-ethyl-7-[4-(2-{[(4-ethylmorpholin-3-yl)methyl]amino}-2-oxoethyl)phenyl]-N-methyl-4-oxo-1,4-dihydro-1,8-naphthyridine-3-carboxamide]	–	130	–
